This is an account of results in patent US7902361B2, “Pyrimidin-4-yl-3, 4-thione compounds and their use in therapy” (Cyclacel Limited, priority 2003, dated 2011).

Like-named read-outs stand apart in the source and are kept apart here. Marks after values point to notes of the source that are not given here.

One data set concerns the target CDK7/cyclin H (Homo sapiens, UniProt P50613). In words: Kinase assay CDK7/cyclin H. In kind it is biochemical. As to conditions: Ki calculated (Cheng-Prusoff) from experimentally determined IC50 and Km,ATP; read-out: Kinase Inhibition Ki CDK7 - cyclin H. In short, it runs like this: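 Radiometric filter assays used recombinant kinases or complexes (2-4 μg) with appropriate polypeptide substrates in pH 7.4 β-glycerophosphate/MOPS buffer. Reactions were started with 15 mM MgCl2 and 100 μM ATP containing [γ-32P]-ATP and run at 30° C. Phosphate incorporated into substrate was counted by scintillation after washing.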

Data set [1] in a line: Blood levels of test compounds in ZDF fa/fa rats. In kind it is in vivo, rat. As to conditions: 30 mg/kg per os twice; for oral bioavailability (blood levels at 30 and 60 min after the glucose load): male ZDF fa/fa rats; for concentration at 30 min / concentration at 60 min: male, rat, whole blood, oral; for concentration at 30 min / concentration at 60 min / Average Blood levels: ZDF fa/fa rats. On the procedure: (§1) The ability of example compounds of the present invention to improve glucose metabolism was tested in 12-13 week old male ZDF fa/fa rats. The test animals (10-15 mmol/L fasting glucose level) were dosed twice at 30 mg/kg and the glucose challenge was given at time 0. […] Most of these blood levels were below the EC50 values determined in cellular assays.
(§2) 12-13 weeks old male ZDF fa/fa rats were used to study the effect of example compounds on oral glucose tolerance. […] Body weight was recorded three times per week. Test compounds were dissolve in a formulation of 10% DMSO, 5% Tween, 5% Span 20, 30% PEG 400 and 50% water (v/v) to provide final solutions at 5 mg/mL concentration. Each experimental group contained 7 animals. After an 16 h overnight fast the test compounds were administered at 30 mg/kg per os twice (at −270 min and −30 min) before the oral glucose tolerance test was commenced (2 g glucose/kg per os as a 40% solution introduced via feeding tube). A control group was dosed in a similar manner with the vehicle only. Blood sampling for blood glucose measurement (20 μL blood) was performed at −270, 0, 15, 30, 60, 90, 120 and 180 min. Mixed venous blood was collected from the tail vein into 20-μL glass capillaries, which were placed in a standard tube filled with 1 mL solution for hemolysis. Glucose levels were measured using the glucose oxidase procedure (Super G Glukosemessgeraet; Dr Mueller Geraetebau, Freital, Germany). In addition, 50 μL blood samples were taken at 30 and 60 min after the glucose dose, placed in heparinized tubes, which were then frozen immediately in liquid nitrogen. The bioanalytical method used employed isocratic elution liquid chromatography—tandem mass spectrometry in electrospray positive ion multiple reaction monitoring mode.

The next data set relates to glycogen synthase. In words: Glycogen synthase activation in mouse adipocytes. As to conditions: for Max FI (% to LiCl): maximum fold induction normalised to 40 mM LiCl. In kind it is cell-based. The protocol: 3T3-L1 mouse pre-adipocytes were grown in DMEM medium supplemented with 10% foetal calf serum (FCS) and penicillin/streptomycin until fully confluent. Cell differentiation was initiated by the addition of 0.5 mM IBMX (2-isobutyl-1-methylxanthine), 0.25 μM dexamethasone and 1 μg/mL insulin into the growth media. The differentiation medium was replaced after 4 days and 7 days. After the initiation of differentiation the cells were grown for an additional 3 days in DMEM, 10% FCS and antibiotics.
HEK293 cells, mouse adipocytes or rat myotubes were treated in 10-cm Petri dishes with different concentrations of GSK3 inhibitor example compounds for 90 minutes. At the end of the treatment period the cells were washed and scraped in ice cold PBS buffer supplemented with 20 mM NaF. The cells were pelleted by centrifugation and lysed in 300 μL buffer (50 mM.HEPES pH 7.5, 10 mM EDTA, 100 mM NaF, 5 mM DTT, protease inhibitor cocktail (Sigma)). After incubation for 30 min on ice the samples were cleared by centrifugation. The activity of glycogen synthase was determined in the soluble fraction at two different concentrations of […]—low (0.1 mM) and high (10 mM). The reaction was carried out for 30 min (buffer: 50 mM Tris pH 7.8, 20 mM EDTA, 25 mM NaF, 5 mM DTT). The reaction mixture (total volume of 90 μL) contained 1% glycogen, 0.3 mM UDP-glucose and 0.06 μCi ^14C-UDP-glucose. Reaction was stopped by transfer of 70 μL to a GFC 96-well filter plate, containing 140 μL 100% ethanol and the glycogen was allowed to precipitate for 1 h at 4° C. The wells were washed 2 times with 200 μL 66% ethanol and than allowed to dry. Subsequently, 100 μL of scintillation liquid was added, and plates were sealed and counted in a Packard Topcounter. Glycogen synthase activation was calculated as the ratio between the incorporation of labelled ^14C-UDP-glucose in glycogen at low and high concentration of […] (fractional velocity).
The ability of GSK3 inhibitors to activate glycogen synthase was determined in HEK293 cells, mouse adipocytes and rat myotubed. The compounds tested activated glycogen synthase in all three cellular systems with EC50 values in the sub-micromolar to low micromolar concentration range. Most of them exceeded the stimulation induced by 40 mM LiCl (the highest compound concentration used in the assay was 20 μM).

Data set [2] is described as follows: Oral glucose tolerance in male ZDF fa/fa rats. In kind it is in vivo, rat. As to conditions: for % Glucose Decrease AUC (−270–180 min) / % Glucose decrease-AUC (0–180 min): ZDF fa/fa rats, oral glucose tolerance, 30 mg/kg per os twice (−270 and −30 min). On the procedure:
as §1, §2

For a further data set, the target named is CDK2/cyclin E (Homo sapiens, UniProt P24941). In words: Kinase assay CDK2/cyclin E. In kind it is biochemical. As to conditions: Ki calculated (Cheng-Prusoff) from experimentally determined IC50 and Km,ATP; read-out: Kinase Inhibition Ki CDK2 - cyclin E. In short, it runs like this:
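Radiometric assays measured transfer of radioactive phosphate from ATP onto polypeptide substrates, using 2-4 μg recombinant active enzyme in buffer typically containing 25 mM β-glycerophosphate, 20 mM MOPS, 5 mM EGTA, 1 mM DTT and 1 mM Na3VO3 at pH 7.4. Reactions were stopped on ice, filtered on P81 or GF/C plates and washed with orthophosphoric acid. Incorporated radioactivity was scintillation-counted.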

[3] abbreviates: male ZDF fa/fa rats, 30 mg/kg per os twice, oral glucose tolerance test.

CDK7/cyclin H, sequence (P50613 whole entry, species assumed): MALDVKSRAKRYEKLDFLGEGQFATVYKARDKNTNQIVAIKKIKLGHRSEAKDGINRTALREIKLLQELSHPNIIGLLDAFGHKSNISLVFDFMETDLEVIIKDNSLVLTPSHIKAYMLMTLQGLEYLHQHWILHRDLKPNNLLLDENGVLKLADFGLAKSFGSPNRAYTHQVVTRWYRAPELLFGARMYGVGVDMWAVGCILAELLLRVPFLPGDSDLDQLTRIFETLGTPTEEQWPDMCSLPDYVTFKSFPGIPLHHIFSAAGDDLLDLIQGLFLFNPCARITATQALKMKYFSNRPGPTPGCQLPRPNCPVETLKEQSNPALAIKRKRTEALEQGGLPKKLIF
CDK7/cyclin H, sequence (P51946 whole entry partner, species assumed): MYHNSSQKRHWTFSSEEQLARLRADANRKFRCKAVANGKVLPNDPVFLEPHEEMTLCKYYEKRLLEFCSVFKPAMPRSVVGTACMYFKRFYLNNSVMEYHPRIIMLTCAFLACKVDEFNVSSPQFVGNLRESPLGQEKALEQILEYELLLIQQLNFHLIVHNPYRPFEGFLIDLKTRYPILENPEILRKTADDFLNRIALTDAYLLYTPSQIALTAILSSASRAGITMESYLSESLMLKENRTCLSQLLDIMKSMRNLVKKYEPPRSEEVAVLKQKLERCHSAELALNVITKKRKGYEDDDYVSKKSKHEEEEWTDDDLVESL

Broadly, the Ki is the dissociation constant of the complex between target and ligand, obtained from inhibition or displacement. In general, EC50 refers to the midpoint of the concentration-response curve. The low end stands for greater potency, the high end for weaker potency. On to `CC(=O)Nc1cc(Nc2nccc(-c3sc(=O)n(C)c3C)n2)cc(C(F)(F)F)c1` [Compound 64, N-{3-[4-(3,4-Dimethyl-2-oxo-2,3-dihydro-thiazol-5-yl)-pyrimidin-2-ylamino]-5-trifluoromethyl-phenyl}-acetamide], for which, on CDK7/cyclin H, the inhibitory constant (Ki) was 3900 nM. Also, in data set [1], the “oral bioavailability (blood levels at 30 and 60 min after the glucose load)” value (“oral bioavailability” for short) is listed as “some oral bioavailability”. For the same compound, the concentration at 30 min in data set [1] (time 30 min) was 248 ng/mL. Moreover, in data set [1] (time 60 min), the concentration at 60 min was 268 ng/mL. The same compound came in with an EC50 in the data set on glycogen synthase (Adipocyte) of 148 ± 70 nM. In the data set on glycogen synthase, the “Max FI (% to LiCl)” value was 143 % to LiCl. Further, in data set [2], the “% Glucose Decrease AUC (−270–180 min)” value was determined as 9% and the “% Glucose decrease-AUC (0–180 min)” value was 8%. In addition, the “glucose AUC” value in data set [2] (setting [3]) was “moderate decrease”.

Take `CCNS(=O)(=O)c1cccc(Nc2nccc(-c3sc(=O)n(C)c3C)n2)c1` [Compound 62, 3-[4-(3,4-Dimethyl-2-oxo-2,3-dihydro-thiazol-5-yl)-pyrimidin-2-ylamino]-N-ethyl-benzenesulfonamide]: the Ki at CDK7/cyclin H is 1100 nM. Further, the concentration at 30 min in data set [1] (time 30 min) amounted to 27.6 ng/mL. In data set [1] (time 60 min), the concentration at 60 min is 29.7 ng/mL. In the data set on glycogen synthase (Adipocyte), this compound gave an EC50 of 432 ± 179 nM. Further, the “Max FI (% to LiCl)” value in the data set on glycogen synthase is given as 234 % to LiCl. The Ki at CDK2/cyclin E is 350 nM. In data set [2], the “% Glucose Decrease AUC (−270–180 min)” value came to 9% and the “% Glucose decrease-AUC (0–180 min)” value is given as 3.6%.

With `Cc1c(-c2ccnc(Nc3cccc(S(=O)(=O)NCCO)c3)n2)sc(=O)n1C` [Compound 75, 3-[4-(3,4-Dimethyl-2-oxo-2,3-dihydro-thiazol-5-yl)-pyrimidin-2-ylamino]-N-(2-hydroxy-ethyl)-benzenesulfonamide], the Ki at CDK7/cyclin H was 370 nM. The compound further had an EC50 in the data set on glycogen synthase (Adipocyte) of 2190 ± 400 nM. Also, the “Max FI (% to LiCl)” value in the data set on glycogen synthase is 181 % to LiCl. Besides, the Ki at CDK2/cyclin E was 380 nM. In data set [2], the “% Glucose Decrease AUC (−270–180 min)” value is 13% and the “% Glucose decrease-AUC (0–180 min)” value is reported as 6.4%.

As to `COCCNS(=O)(=O)c1cccc(Nc2nccc(-c3sc(=O)n(C)c3C)n2)c1` [Compound 67, 3-[4-(3,4-Dimethyl-2-oxo-2,3-dihydro-thiazol-5-yl)-pyrimidin-2-ylamino]-N-(2-methoxy-ethyl)-benzenesulfonamide], on CDK7/cyclin H, the Ki was 360 nM. Also, the “oral bioavailability” value in data set [1] is “some oral bioavailability”. For the same compound, the concentration at 30 min in data set [1] (time 30 min) worked out at 350 ng/mL. This compound also gave a concentration at 60 min in data set [1] (time 60 min) of 271 ng/mL. This compound also showed an EC50 with glycogen synthase (Adipocyte) of 4830 ± 4600 nM. In addition, the “Max FI (% to LiCl)” value in the data set on glycogen synthase is 177 % to LiCl. Besides, in data set [2], the “% Glucose Decrease AUC (−270–180 min)” value is given as 14% and the “% Glucose decrease-AUC (0–180 min)” value came to 7.5%. Further, the “glucose AUC” value in data set [2] (setting [3]) is on record as “moderate decrease”.

Regarding `Cc1c(-c2ccnc(Nc3cc(Br)cc(C(F)(F)F)c3)n2)sc(=O)n1C` [Compound 68, 5-[2-(3-Bromo-5-trifluoromethyl-phenylamino)-pyrimidin-4-yl]-3,4-dimethyl-3H-thiazol-2-one], the “oral bioavailability” value in data set [1] was “some oral bioavailability”. Also, the concentration at 30 min in data set [1] (time 30 min) worked out at 115 ng/mL. Besides, the concentration at 60 min in data set [1] (time 60 min) came out at 70.1 ng/mL. Further, it took 9550 ± 7400 nM to reach a half-maximal effect in the data set with glycogen synthase (Adipocyte) (EC50). The “Max FI (% to LiCl)” value in the data set with glycogen synthase was 50 % to LiCl. In data set [2], the “% Glucose Decrease AUC (−270–180 min)” value is given as 5% and the “% Glucose decrease-AUC (0–180 min)” value is 8.4* %. In addition, in data set [2] (setting [3]), the “decreased blood glucose levels” value was “statistically significant” and the “glucose AUC” value is recorded as “moderate decrease”.

Consider `CNc1cc(Nc2nccc(-c3sc(=O)n(C)c3C)n2)cc(C(F)(F)F)c1` [Compound 76, 3,4-Dimethyl-5-[2-(3-methylamino-5-trifluoromethyl-phenylamino)-pyrimidin-4-yl]-3H-thiazol-2-one], for which the Ki on CDK7/cyclin H is 800 nM. Further, the “Average Blood levels” value in data set [1] (time 30 min) was 43.0 ng/mL. Also, the “Average Blood levels” value in data set [1] (time 60 min) stood at 48.1 ng/mL. Also, in the data set with glycogen synthase, a half-maximal effect (EC50) was put at 1110 ± 530 nM and the “Max FI (% to LiCl)” value was 196 % to LiCl. In addition, the Ki at CDK2/cyclin E was 89 nM. Further, in data set [2], the “% Glucose Decrease AUC (−270–180 min)” value is 0% and the “% Glucose decrease-AUC (0–180 min)” value was 0.5%.
